Source: patent USRE47193E1, “Selectively substituted quinoline compounds” (EISAI R&D MANAGEMENT CO., LTD., priority 2013, dated 2019)

Legend:
[1] = molecular target: T1, human TLR8 (Homo sapiens, UniProt Q9NR97); assay: HEK-293 human TLR8 NF-kappaB luciferase reporter assay (CL097); format: cell-based; conditions: HEK-293 assay format; read-out: HEK/hTLR8 IC50
T1 construct: host or cells: HEK-293, then stably transfected with pNiFty2(NF-kappaB)-luciferase reporter
T1 sequence (Q9NR97 27-1041): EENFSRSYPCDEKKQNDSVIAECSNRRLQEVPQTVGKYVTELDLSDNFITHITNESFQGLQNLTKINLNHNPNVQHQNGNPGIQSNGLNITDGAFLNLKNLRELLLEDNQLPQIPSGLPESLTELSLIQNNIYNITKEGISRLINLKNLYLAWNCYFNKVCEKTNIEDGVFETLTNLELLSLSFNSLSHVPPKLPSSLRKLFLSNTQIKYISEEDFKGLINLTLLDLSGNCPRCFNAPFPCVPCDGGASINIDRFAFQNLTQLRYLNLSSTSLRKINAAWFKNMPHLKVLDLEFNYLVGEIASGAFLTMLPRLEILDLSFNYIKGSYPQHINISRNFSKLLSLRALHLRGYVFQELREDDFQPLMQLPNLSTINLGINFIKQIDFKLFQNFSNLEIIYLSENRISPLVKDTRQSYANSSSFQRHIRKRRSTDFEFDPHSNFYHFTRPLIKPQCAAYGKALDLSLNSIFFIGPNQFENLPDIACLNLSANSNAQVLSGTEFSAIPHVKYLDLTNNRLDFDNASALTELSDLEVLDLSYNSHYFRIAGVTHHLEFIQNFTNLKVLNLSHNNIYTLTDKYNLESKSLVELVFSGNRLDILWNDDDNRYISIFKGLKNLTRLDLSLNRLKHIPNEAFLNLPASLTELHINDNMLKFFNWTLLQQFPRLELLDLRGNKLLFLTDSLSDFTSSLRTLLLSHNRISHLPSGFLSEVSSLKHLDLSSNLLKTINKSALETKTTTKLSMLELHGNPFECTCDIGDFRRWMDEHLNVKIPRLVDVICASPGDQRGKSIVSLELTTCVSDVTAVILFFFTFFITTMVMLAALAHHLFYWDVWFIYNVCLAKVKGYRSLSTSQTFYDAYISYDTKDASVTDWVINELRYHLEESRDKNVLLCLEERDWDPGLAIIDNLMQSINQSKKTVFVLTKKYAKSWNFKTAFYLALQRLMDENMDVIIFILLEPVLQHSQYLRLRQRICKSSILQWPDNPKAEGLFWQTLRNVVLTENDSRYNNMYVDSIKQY
Method: Effects on mouse TLR7 were also compared. Cells were stimulated overnight with TLR7/8 agonist CL097 at pre-determined ED70-80: 3 ug/ml for HEK-hTLR7, 1.5 ug/ml for HEK-mTLR7 and 12 ug/ml for HEK-hTLR8, before reading luminescence intensity. Three tests were performed and IC50 value was determined using Graphpad Prism 6 nonlinear regression curve fit.
HEK-293 cells (ATCC) were engineered to stably express a NF-kappaB transcription factor inducible E-selectin (ELAM-1) luciferase reporter derived from the plasmid pGL3 (Promega) containing base pairs −2241 bp to −254 bp from the promoter of the human E-selectin gene (Accession No. NM_000450). These cells were then subsequently engineered to stably and individually express human TLR4, TLR7 or TLR9 full-length ORF cDNAs. Human TLR4 cDNA (Accession No. NM_138554) was cloned into pcDNA 3.0 expression vector (Invitrogen). TLR4 transfected cells were also engineered to express human MD-2 co-receptor [MD-2 cDNA (Accession No. NM_015364) was cloned into the pEF-BOS vector] and were supplemented with 10 nM soluble CD14 (R&D Systems) in the media to optimize LPS responsiveness. Human TLR9 cDNA (Accession No. NM_017442) was cloned into the pBluescript II KS vector (Agilent). Human TLR7 cDNA (Accession No. NM_016562) was obtained from OriGene. HEK-293 cells stably expressing human TLR8 (Accession No. NM_138636) or mouse TLR7 (Accession No. NM_133211) were purchased from InvivoGen and were then stably transfected with pNiFty2(NF-kappaB)-luciferase reporter plasmid (InvivoGen). Each cell type was plated in Dulbecco's modified Eagle's medium (DMEM) containing 10% fetal bovine serum (FBS) at a density of 2.22×10^5 cells/ml into a 384-well plate and incubated for 2 days at 37° C., 5% CO2. Varying concentrations of antagonist compounds were then added. Cells were then incubated for another 30 minutes before adding the appropriate TLR agonist as follows (final concentrations indicated): lipopolysaccharide (LPS; Sigma) at 10 ng/ml for TLR4, CL097 (InvivoGen) at 3 ug/ml for human TLR7 and TLR8 and mouse TLR7, and CvG-2006-2A [sequence: […] (SEQ ID NO: 1) with phosphorothioate backbone, synthesized by Sigma-Aldrich] at 0.6 uM for TLR9.

[2] = tested on: Human TLR7/8; assay: Human PBMC cell-based assay, TLR7/8 stimulus (RNA-Ig), cytokine ELISA; conditions: primary human PBMC assay, TLR7/8 potency; ligand not given; read-out: Human PBMCs IC50
Procedure, shortened: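 Healthy-donor human PBMC, 2×10^5 cells/well (1×10^5 in later assay), pre-treated 30 min with compound (0.1% DMSO). Stimulated 20 h at 37 °C with RNA-Ig: 26-mer U1 snRNA stem loop IV phosphorothioate RNA at 2.5 μM plus anti-ssDNA antibody (1:25 or 1 ug/ml). Supernatant cytokines by ELISA.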

Compound | IC50 [1] [nM] | IC50 [2] [nM]
C[C@@H]1CN(c2ccc(C#N)c3ncccc23)C[C@H](CN2CCC(C)(C)C2)O1 [ER-886869] | 161 | 112
C[C@@H]1CN(c2ccc(C#N)c3ncccc23)C[C@H](CNc2cccnc2)O1 [ER-887138] | 13 | 4
CC(=O)N1CCN(C[C@H]2CN(c3ccc(C#N)c4ncccc34)C[C@@H](C)O2)CC1 [ER-887261] | 77 | 120
CC1CN(c2ccc(C#N)c3ncccc23)CC(C(O)CCc2ccccc2)O1 (single isomer, unassigned) [ER-886567] | 5 | 22
C[C@@H]1CN(c2ccc(C#N)c3ncccc23)C[C@H](CCl)O1 [ER-885906] | 20 | 33
C[C@@H]1CN(c2ccc(C#N)c3ncccc23)C[C@H](CNC2CCC2)O1 [ER-887443] | 138 | 32
CC[C@@H]1CN(c2ccc(C#N)c3ncccc23)C[C@H](CO)O1 [ER-887199] | 77 | 117
C[C@@H]1CN(c2ccc(C#N)c3ncccc23)C[C@H](C(=O)C2CCCCC2)O1 [ER-886626] | 5 | 80
C[C@@H]1CN(c2ccc(C#N)c3ncccc23)C[C@H](CN2C[C@H](C)NC[C@H]2C)O1 [ER-887272] | 2.9 | 2
C[C@@H]1CN(C[C@H]2CN(c3ccc(C#N)c4ncccc34)C[C@@H](C)O2)[C@H](C)CN1 [ER-887271] | 1.6 | 2
C[C@@H]1CN(c2ccc(C#N)c3ncccc23)C[C@H](CN2CCC(F)(F)CC2)O1 [ER-887142] | 115 | 147
C[C@@H]1CN(c2ccc(C#N)c3ncccc23)C[C@H](CNc2ncccc2-c2ccccc2)O1 [ER-887540] | 3 | 1
C[C@@H]1CN(c2ccc(C#N)c3ncccc23)C[C@H](CN2CC(NC(=O)c3ccccc3)C2)O1 [ER-894594] | 116 | 87
C[C@@H]1CN(c2ccc(C#N)c3ncccc23)C[C@H](CN2CCC[C@@H](O)C2)O1 [ER-886949] | 78 | 32
C[C@@H]1CN(c2ccc(C#N)c3ncccc23)C[C@H](CNC2CCC(O)CC2)O1 (some centres unmarked) [ER-887526] | 122 | 50
C[C@@H]1CN(c2ccc(C#N)c3ncccc23)C[C@H](COc2ccccc2F)O1 [ER-886624] | 86 | 23
CC1CN(c2ccc(C#N)c3ncccc23)CC(CN2CCC(F)CC2)O1 (centres unmarked) [ER-887144] | 48 | 63
CC1CCC(C)N1C[C@H]1CN(c2ccc(C#N)c3ncccc23)C[C@@H](C)O1 (some centres unmarked) [ER-886857] | 72 | 98
COc1ccnc(NC[C@H]2CN(c3ccc(C#N)c4ncccc34)C[C@@H](C)O2)c1 [ER-886858] | 2 | 15
COC[C@H]1CN(c2ccc(C#N)c3ncccc23)C[C@@H](C)O1 [ER-885612] | 55 | 614
C[C@@H]1CN(c2ccc(C#N)c3ncccc23)C[C@H](COCc2ccccc2)O1 [ER-885618, 5-((2R,6R)-2-((benzyloxy)methyl)-6-methylmorpholino)quinoline-8-carbonitrile] | 5 | 23
C[C@@H]1CN(c2ccc(C#N)c3ncccc23)C[C@H](CN2CCC(c3ccccc3)CC2)O1 [ER-887143] | 148 | 13
CC[C@@H]1CN(c2ccc(C#N)c3ncccc23)C[C@H](COCc2ccccc2)O1 [ER-886355] | 66 | 177
CC1CN(c2ccc(C#N)c3ncccc23)CC(CNC2CCCC2O)O1 (mixture of isomers) [ER-887528] | 135 | 56
C[C@@H]1CN(c2ccc(C#N)c3ncccc23)C[C@H](CNc2ccc(-c3ccccc3)cn2)O1 [ER-887538] | 85 | 48
C[C@@H]1CN(c2ccc(C#N)c3ncccc23)C[C@H](CNc2ccnc(-c3ccccc3)c2)O1 [ER-887588] | 0.5 | 1
C[C@@H]1CN(c2ccc(C#N)c3ncccc23)C[C@H](CN2CCN(c3ccccc3)CC2)O1 [ER-887258] | 175 | 55
CCC(=O)[C@H]1CN(c2ccc(C#N)c3ncccc23)C[C@@H](C)O1 [ER-886625] | 10 | 91
